One data set has as its system HT-29. Nature of the data set: Antiproliferative activity against human HT-29 cells assessed as inhibition of cell growth incubated for 48 hrs by CCK8 assay. The data set is classed as functional. Background: Formazan colour is commonly taken as a measure of viable cells.
Data set [1] deals with HCT-116. Nature of the data set: Antiproliferative activity against human HCT-116 cells assessed as inhibition of cell growth incubated for 48 hrs by CCK8 assay. The data set is classed as functional.
In another data set the target is CDK9/cyclin T1 (Homo sapiens, UniProt P50750). Nature of the data set: Inhibition of His-tagged full length human recombinant CDK9/cyclinT1 using KTFCGTPEYLAPEVRREPRILSEEEQEMFRDFDYIADWC as substrate incubated for 60 mins by ADP-Glo kinase assay. It counts as protein-complex assay.
The nature of data set [2]: Metabolic stability in human liver microsome assessed as half life at 100 uM pre-incubated with compound for 60 mins followed by NADPH addition and measured up to 60 mins by LC-MS/MS analysis. It counts as ADME. As to conditions: liver microsomes, time < 120 min. (Microsomes from liver hold many membrane-bound enzymes, among them those of drug oxidation.)
Another data set deals with CYP1A2 (Homo sapiens, UniProt P05177). Nature of the data set: Inhibition of CYP1A2 in human liver microsome at 10 uM pre-incubated with compound for 10 mins in presence of NADPH-regenerating system by LC-MS/MS analysis relative to control. It counts as ADME. As to conditions: liver microsomes.
For the next data set, the target named is CYP2C19 (Homo sapiens, UniProt P33261). Nature of the data set: Inhibition of CYP2C19 in human liver microsome at 10 uM pre-incubated with compound for 10 mins in presence of NADPH-regenerating system by LC-MS/MS analysis relative to control. It counts as ADME. As to conditions: liver microsomes.
Data set [3] in a line: Stability in human plasma assessed as half life at 100 uM measured up to 120 mins by LC-MS/MS analysis. It counts as ADME, cell-free.
For a further data set, the target named is CYP2C9 (Homo sapiens, UniProt P11712). Nature of the data set: Inhibition of CYP2C9 in human liver microsome at 10 uM pre-incubated with compound for 10 mins in presence of NADPH-regenerating system by LC-MS/MS analysis relative to control. The data set is classed as ADME. Particulars: liver microsomes.
The test system of data set [4] is HCT-116. The data set is described as follows: Antiproliferative activity against human HCT-116 cells assessed as reduction in colony formation incubated for 14 days by crystal violet staining based analysis. It counts as functional, cell-based. Particulars: dose 50-400 nM, time 14.0 day.

A word on the GI50: it is the concentration giving 50% growth inhibition. The IC50 is the concentration that inhibits the measured activity by half. Usually half-life stands for the time needed for the level to fall by half in the phase considered. The inhibition is the change of the read-out against control, counted positive when it falls.

CDK9/cyclin T1, sequence (O60563 whole entry): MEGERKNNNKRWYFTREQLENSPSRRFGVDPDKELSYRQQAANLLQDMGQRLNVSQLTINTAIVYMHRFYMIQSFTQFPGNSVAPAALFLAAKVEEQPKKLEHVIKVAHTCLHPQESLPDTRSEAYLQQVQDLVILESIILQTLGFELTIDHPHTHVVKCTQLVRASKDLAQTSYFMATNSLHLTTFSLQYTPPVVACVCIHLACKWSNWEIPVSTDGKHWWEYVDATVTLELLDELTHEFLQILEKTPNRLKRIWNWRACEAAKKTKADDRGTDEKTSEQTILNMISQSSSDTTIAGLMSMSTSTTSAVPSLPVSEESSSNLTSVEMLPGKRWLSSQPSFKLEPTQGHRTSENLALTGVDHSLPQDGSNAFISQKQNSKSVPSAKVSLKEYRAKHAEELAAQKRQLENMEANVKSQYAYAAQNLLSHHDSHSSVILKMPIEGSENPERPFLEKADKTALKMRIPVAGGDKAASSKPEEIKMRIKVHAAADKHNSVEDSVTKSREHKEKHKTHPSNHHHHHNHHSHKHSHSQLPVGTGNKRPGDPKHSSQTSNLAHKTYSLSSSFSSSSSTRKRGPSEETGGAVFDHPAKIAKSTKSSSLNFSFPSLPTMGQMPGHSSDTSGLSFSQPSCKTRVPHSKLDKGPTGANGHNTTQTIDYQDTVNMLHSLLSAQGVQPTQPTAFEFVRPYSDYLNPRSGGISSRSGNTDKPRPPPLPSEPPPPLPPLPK
CDK9/cyclin T1, sequence (P50750 whole entry): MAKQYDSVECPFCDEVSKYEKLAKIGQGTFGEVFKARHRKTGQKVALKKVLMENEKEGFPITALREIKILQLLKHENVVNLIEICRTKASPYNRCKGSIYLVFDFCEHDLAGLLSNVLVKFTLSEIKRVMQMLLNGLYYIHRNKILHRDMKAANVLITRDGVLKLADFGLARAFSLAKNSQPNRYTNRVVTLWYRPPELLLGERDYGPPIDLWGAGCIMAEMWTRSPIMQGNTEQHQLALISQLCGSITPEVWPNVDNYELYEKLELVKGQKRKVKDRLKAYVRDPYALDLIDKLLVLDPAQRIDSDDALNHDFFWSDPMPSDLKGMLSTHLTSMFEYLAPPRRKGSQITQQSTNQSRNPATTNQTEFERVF
CYP1A2, sequence (P05177 whole entry): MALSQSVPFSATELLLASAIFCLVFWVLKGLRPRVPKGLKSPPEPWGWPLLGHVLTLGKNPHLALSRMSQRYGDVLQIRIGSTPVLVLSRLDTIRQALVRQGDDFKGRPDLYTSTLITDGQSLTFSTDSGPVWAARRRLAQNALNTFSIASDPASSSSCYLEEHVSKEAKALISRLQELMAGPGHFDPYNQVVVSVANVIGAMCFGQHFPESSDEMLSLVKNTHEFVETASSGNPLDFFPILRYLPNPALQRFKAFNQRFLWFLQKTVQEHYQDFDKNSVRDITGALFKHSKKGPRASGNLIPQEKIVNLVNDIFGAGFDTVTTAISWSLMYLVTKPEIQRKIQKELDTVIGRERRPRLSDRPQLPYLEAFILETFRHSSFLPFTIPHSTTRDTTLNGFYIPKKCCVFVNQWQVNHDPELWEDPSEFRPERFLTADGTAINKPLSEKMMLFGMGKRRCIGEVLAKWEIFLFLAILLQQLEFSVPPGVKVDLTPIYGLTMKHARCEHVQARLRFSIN
CYP2C9, sequence (P11712 whole entry): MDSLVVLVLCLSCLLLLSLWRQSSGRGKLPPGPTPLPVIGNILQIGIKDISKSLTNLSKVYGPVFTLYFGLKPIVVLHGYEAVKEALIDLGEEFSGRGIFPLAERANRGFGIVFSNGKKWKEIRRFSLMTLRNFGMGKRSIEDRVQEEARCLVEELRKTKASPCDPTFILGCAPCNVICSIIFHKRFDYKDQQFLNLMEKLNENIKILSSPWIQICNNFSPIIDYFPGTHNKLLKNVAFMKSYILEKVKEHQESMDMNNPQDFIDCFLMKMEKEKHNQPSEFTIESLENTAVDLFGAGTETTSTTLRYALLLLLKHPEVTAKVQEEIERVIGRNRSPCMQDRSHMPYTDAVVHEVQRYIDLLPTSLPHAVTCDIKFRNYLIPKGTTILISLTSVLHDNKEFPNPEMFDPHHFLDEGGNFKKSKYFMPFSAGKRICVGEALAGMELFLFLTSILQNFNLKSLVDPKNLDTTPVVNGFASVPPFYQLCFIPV
CYP2C19, sequence (P33261 whole entry): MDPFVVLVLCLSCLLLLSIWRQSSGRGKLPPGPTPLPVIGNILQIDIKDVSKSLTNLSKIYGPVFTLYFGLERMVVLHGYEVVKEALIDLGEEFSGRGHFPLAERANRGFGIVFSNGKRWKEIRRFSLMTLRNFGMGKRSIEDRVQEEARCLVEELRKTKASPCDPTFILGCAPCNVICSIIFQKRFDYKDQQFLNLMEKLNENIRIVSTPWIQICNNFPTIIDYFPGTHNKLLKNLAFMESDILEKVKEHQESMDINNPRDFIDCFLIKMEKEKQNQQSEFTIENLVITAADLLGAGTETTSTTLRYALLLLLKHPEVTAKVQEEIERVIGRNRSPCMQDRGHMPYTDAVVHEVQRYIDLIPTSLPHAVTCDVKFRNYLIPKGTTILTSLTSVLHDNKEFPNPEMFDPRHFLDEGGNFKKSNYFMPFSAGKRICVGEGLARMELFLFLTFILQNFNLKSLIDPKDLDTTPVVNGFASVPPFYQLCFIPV

As to `COc1ccccc1-c1ccnc(NC(=O)Nc2cccc(C(=O)N3CCOCC3)c2)c1`, the concentration for 50% growth inhibition (GI50) in the data set on HT-29 and in the data set on HCT-116 [1] was over 1000 nM each time. Further, the IC50 at CDK9/cyclin T1 came out at 45.9 nM.
With `O=C(Nc1cccc(C(=O)N2CCOCC2)c1)Nc1cc(-c2ccc(F)cc2)ccn1`, the GI50 with HT-29 and in the data set with HCT-116 [1] was over 1000 nM throughout. In addition, the 50% inhibitory concentration (IC50) at CDK9/cyclin T1 was over 50 nM.
For the molecule `CC(C)Oc1cc(F)ccc1-c1ccnc(NC(=O)Nc2cccc(C(=O)N3CCOCC3)c2)c1`, the values for the GI50 in the data set with HT-29 and in the data set with HCT-116 [1] were 990 nM and 370 nM, respectively. In addition, the IC50 at CDK9/cyclin T1 is 21 nM.
As for `O=C(Nc1cccc(C(=O)N2CCOCC2)c1)Nc1cc(-c2ccc(Cl)cc2F)ccn1`, the GI50 in the data set with HT-29 and with HCT-116 [1] was over 1000 nM each time. Besides, the concentration for half-maximal inhibition (IC50) at CDK9/cyclin T1 was over 50 nM.
As to `C[C@]12CC[C@H]3[C@@H](CCC4=CC(=O)CC[C@@]43C)[C@@H]1CC[C@@H]2O` [TESTOSTERONE], the half-life at 100 µM in data set [2] stood at 7.8 min.
As for `O=c1cc(-c2ccccc2)oc2c1ccc1ccccc12` [ALPHA-NAPHTHOFLAVONE], the inhibition at 10 µM on CYP1A2 was 88.4%.
For `CC(C)Oc1cc(F)ccc1-c1ccnc(NC(=O)Nc2cccc(C(=O)N3CCCN(C)CC3)c2)c1`, the concentration for 50% growth inhibition (GI50) with HT-29 and with HCT-116 [1] was over 1000 nM in each case. Moreover, the IC50 at CDK9/cyclin T1 was over 50 nM.
As for `O=C(Nc1cccc(C(=O)N2CCOCC2)c1)Nc1cc(-c2ccc(F)cc2OCC2CCCCC2)ccn1`, the GI50 with HT-29 and with HCT-116 [1] was over 1000 nM in each case. Besides, the IC50 on CDK9/cyclin T1 came to 88.1 nM.
For `COc1cc(F)ccc1-c1ccnc(NC(=O)Nc2cccc(C(=O)N3CCOCC3)c2)c1`, the GI50 with HT-29 and in the data set with HCT-116 [1] was over 1000 nM throughout. Moreover, the half-maximal inhibitory concentration (IC50) at CDK9/cyclin T1 came out at 27.8 nM.
In the case of `O=C(O)Cc1ccccc1Nc1c(Cl)cccc1Cl` [DICLOFENAC], the half-life at 100 µM in data set [2] is 6.4 min.
On to `COc1ccc(-c2ccnc(NC(=O)Nc3cccc(C(=O)N4CCOCC4)c3)c2)cc1`, for which the 50% growth inhibitory concentration (GI50) with HT-29 and in the data set on HCT-116 [1] was over 1000 nM in each case. Moreover, the half-inhibitory concentration (IC50) on CDK9/cyclin T1 was over 50 nM.
Regarding `CC(=O)N1CCN(C(=O)c2cccc(NC(=O)Nc3cc(-c4ccc(F)cc4OC(C)C)ccn3)c2)CC1`, the GI50 in the data set with HT-29 and in the data set on HCT-116 [1] was over 1000 nM throughout. Also, the IC50 at CDK9/cyclin T1 is over 50 nM.
Turning to `O=C(Nc1cccc(C(=O)N2CCOCC2)c1)Nc1cc(-c2cc(F)cc(F)c2)ccn1`, the concentration for 50% growth inhibition (GI50) in the data set on HT-29 and in the data set on HCT-116 [1] was over 1000 nM throughout. The IC50 at CDK9/cyclin T1 was over 50 nM.
Turning to `O=C(Nc1cccc(C(=O)N2CCOCC2)c1)Nc1cc(-c2ccc(F)c(F)c2)ccn1`, the GI50 in the data set with HT-29 and in the data set on HCT-116 [1] was over 1000 nM throughout. Besides, the IC50 at CDK9/cyclin T1 is over 50 nM.
Consider `O=C(Nc1cccc(C(=O)N2CCOCC2)c1)Nc1cc(-c2ccc(F)cc2OCC2CCCC2)ccn1`, for which the GI50 with HT-29 and in the data set with HCT-116 [1] was over 1000 nM each time. In addition, the half-maximal inhibitory concentration (IC50) at CDK9/cyclin T1 was found to be 59.1 nM.
Turning to `CC(C)Oc1cc(F)ccc1-c1ccnc(NC(=O)Nc2ccc(C(=O)N3CCN(C(C)C)CC3)cc2)c1`, the GI50 in the data set on HT-29 and with HCT-116 [1] was over 1000 nM throughout. The IC50 on CDK9/cyclin T1 was over 50 nM.
`O=C(Nc1cccc(C(=O)N2CCOCC2)c1)Nc1cc(-c2cccc(F)c2)ccn1`: the concentration for 50% growth inhibition (GI50) with HT-29 and in the data set on HCT-116 [1] was over 1000 nM throughout. The 50% inhibitory concentration (IC50) on CDK9/cyclin T1 was over 50 nM.
Take `CCOc1cc(F)ccc1-c1ccnc(NC(=O)Nc2cccc(C(=O)N3CCOCC3)c2)c1`: the GI50 in the data set with HT-29 and with HCT-116 [1] was over 1000 nM each time. Moreover, the IC50 on CDK9/cyclin T1 was found to be 30.4 nM.
As for `CCN1CCN(C(=O)c2cccc(NC(=O)Nc3cc(-c4ccc(F)cc4OC(C)C)ccn3)c2)CC1`, the results for the GI50 in the data set on HT-29 and in the data set on HCT-116 [1] were 570 nM and 200 nM, respectively. Besides, the IC50 at CDK9/cyclin T1 is 16.5 nM.
`O=C(Nc1cccc(C(=O)N2CCOCC2)c1)Nc1cc(-c2ccccc2F)ccn1`: the GI50 in the data set on HT-29 and with HCT-116 [1] was over 1000 nM each time. Moreover, the IC50 on CDK9/cyclin T1 was over 50 nM.
For `CCC1(c2ccccc2)NC(=O)N(Cc2ccccc2)C1=O` (single isomer, unassigned; (+)), the inhibition at 10 µM at CYP2C19 was 88.3%.
For `CC(C)Oc1cc(F)ccc1-c1ccnc(NC(=O)Nc2ccc(C(=O)N3CCN(C)CC3)cc2)c1`, the 50% growth inhibitory concentration (GI50) with HT-29 and with HCT-116 [1] was over 1000 nM each time. Moreover, the IC50 at CDK9/cyclin T1 is over 50 nM.
`O=C(Nc1cccc(C(=O)N2CCOCC2)c1)Nc1cc(-c2cc(F)c(F)c(F)c2)ccn1`: the GI50 in the data set on HT-29 and in the data set with HCT-116 [1] was over 1000 nM throughout. For the same molecule, the IC50 on CDK9/cyclin T1 was over 50 nM.
For `CC(C)[N+](C)(CCOC(=O)C1c2ccccc2Oc2ccccc21)C(C)C.[Br-]` [PROPANTHELINE BROMIDE], the half-life at 100 µM in [3] was 15.6 min.
Turning to `CC(=O)N1CCN(C(=O)c2ccc(NC(=O)Nc3cc(-c4ccc(F)cc4OC(C)C)ccn3)cc2)CC1`, the 50% growth inhibitory concentration (GI50) in the data set with HT-29 and with HCT-116 [1] was over 1000 nM each time. Moreover, the IC50 at CDK9/cyclin T1 is over 50 nM.
With `CC(C)Oc1cc(F)ccc1-c1ccnc(NC(=O)Nc2cccc(C(=O)N3CCN(C(C)C)CC3)c2)c1`, the values for the 50% growth inhibitory concentration (GI50) in the data set on HT-29 and in the data set on HCT-116 [1] were 670 nM and 960 nM, respectively. Also, the half-maximal inhibitory concentration (IC50) at CDK9/cyclin T1 was over 50 nM.
For `Cc1ccc(-c2ccnc(NC(=O)Nc3cccc(C(=O)N4CCOCC4)c3)c2)cc1`, in that order: over 1000 nM, over 1000 nM and over 50 nM.
The corresponding values for `O=C(Nc1cccc(C(=O)N2CCOCC2)c1)Nc1cc(-c2ccc(F)cc2F)ccn1` are over 1000 nM, over 1000 nM and over 50 nM.
Regarding `Nc1ccc(S(=O)(=O)Nc2ccnn2-c2ccccc2)cc1` [SULFAPHENAZOLE], the inhibition at 10 µM on CYP2C9 was 87.2%.
With `CC(C)Oc1cc(F)ccc1-c1ccnc(NC(=O)Nc2cccc(C(=O)N3CCCC3)c2)c1`, the results for the 50% growth inhibitory concentration (GI50) in the data set with HT-29 and in the data set with HCT-116 [1] were 180 nM and over 1000 nM, respectively. Further, at CDK9/cyclin T1, the half-maximal inhibitory concentration (IC50) worked out at 35.8 nM.
With `Cc1ncc(-c2ccnc(Nc3ccc(S(C)(=O)=O)cc3)n2)n1C(C)C` [AZD-5438], the Activity result in the data set on HCT-116 [4] was “Dose-dependent-effect”. Moreover, the 50% growth inhibitory concentration (GI50) in the data set on HT-29 was 700 nM; in the data set on HCT-116 [1], 480 nM.
Take `CC(C)Oc1cc(F)ccc1-c1ccnc(NC(=O)Nc2ccc(C(=O)N3CCC(F)(F)CC3)cc2)c1`: the concentration for 50% growth inhibition (GI50) in the data set with HT-29 and in the data set on HCT-116 [1] was over 1000 nM each time. The half-maximal inhibitory concentration (IC50) at CDK9/cyclin T1 was over 50 nM.
Consider `CC(C)Oc1cc(F)ccc1-c1ccnc(NC(=O)Nc2ccc(C(=O)N3CCOCC3)cc2)c1`, for which the concentration for 50% growth inhibition (GI50) in the data set with HT-29 and in the data set on HCT-116 [1] was over 1000 nM in each case. Moreover, the 50% inhibitory concentration (IC50) at CDK9/cyclin T1 was over 50 nM.
For the molecule `CC(C)Oc1cc(F)ccc1-c1ccnc(NC(=O)Nc2ccc(C(=O)N3CCCC3)cc2)c1`, the GI50 in the data set on HT-29 and in the data set with HCT-116 [1] was over 1000 nM in each case. In addition, the IC50 at CDK9/cyclin T1 is over 50 nM.
`O=C(Nc1cccc(C(=O)N2CCOCC2)c1)Nc1cc(-c2cccc(Cl)c2)ccn1`: the GI50 in the data set on HT-29 and in the data set on HCT-116 [1] was over 1000 nM throughout. Further, on CDK9/cyclin T1, the IC50 worked out at 35.9 nM.
As for `CCN1CCN(C(=O)c2ccc(NC(=O)Nc3cc(-c4ccc(F)cc4OC(C)C)ccn3)cc2)CC1`, the GI50 with HT-29 and in the data set with HCT-116 [1] was over 1000 nM throughout. Also, at CDK9/cyclin T1, the concentration for half-maximal inhibition (IC50) was over 50 nM.

Source of the values: ChEMBL document CHEMBL6178014, “Discovery and Administration Optimization of Novel Selective CDK9 Inhibitor, 1-7a-B1, for Improved Pharmacokinetics and Antitumor Efficacy In Vivo” (J Med Chem, 2025).
